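Protocol summary: plate cells (96-well), add compound at 5 concentrations, incubate 48 h, interpolate endpoints linearly. Here, GI50 denotes the concentration required for 50% inhibition of growth.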 Activity calls are given as the source filed them. Rule as the data show it: active = GI50 up to about 1.1 µM and inactive = higher.
How the values were obtained:
Assay in all cases: NCI-60 cell line screen, 48 h
NCI/ADR-RES = tested on: NCI/ADR-RES
UACC-62 = tested on: UACC-62
HCC 2998 = tested on: HCC 2998
LOX IMVI = tested on: LOX IMVI
A498 = tested on: A498
CAKI-1 = tested on: CAKI-1
SK-MEL-5 = tested on: SK-MEL-5
OVCAR-4 = tested on: OVCAR-4
KM12 = tested on: KM12
UACC-257 = tested on: UACC-257
Malme-3M = tested on: Malme-3M
SK-MEL-28 = tested on: SK-MEL-28
SF-295 = tested on: SF-295
MOLT-4 = tested on: MOLT-4
A549 = tested on: A549
SNB-19 = tested on: SNB-19
OVCAR-8 = tested on: OVCAR-8
SK-OV-3 = tested on: SK-OV-3
NCI-H522 = tested on: NCI-H522

| SMILES | GI50 (NCI/ADR-RES) | GI50 (UACC-62) | GI50 (HCC 2998) | GI50 (LOX IMVI) | GI50 (A498) | GI50 (CAKI-1) | GI50 (SK-MEL-5) | GI50 (OVCAR-4) | GI50 (KM12) | GI50 (UACC-257) | GI50 (Malme-3M) | GI50 (SK-MEL-28) | GI50 (SF-295) | GI50 (MOLT-4) | GI50 (A549) | GI50 (SNB-19) | GI50 (OVCAR-8) | GI50 (SK-OV-3) | GI50 (NCI-H522) |
| --- | --- | --- | --- | --- | --- | --- | --- | --- | --- | --- | --- | --- | --- | --- | --- | --- | --- | --- | --- |
| CC[C@@]1(O)C(=O)OCc2c1cc1n(c2=O)Cc2c-1nc1ccccc1c2/C=N\NC(=O)C(N)CO (stereo partly drawn) | 0.785 µM (active) | < 0.0395 µM (active) | 12.1 µM (inactive) | 0.329 µM (active) | 1.65 µM (inactive) | 0.408 µM (active) | 0.684 µM (active) | 14.2 µM (inactive) | 5.92 µM (inactive) | 3.59 µM (inactive) | 9.04 µM (inactive) | 19.2 µM (inactive) | 0.505 µM (active) | 0.0466 µM (active) | 1.05 µM (active) | 0.202 µM (active) | 0.596 µM (active) | 2.36 µM (inactive) | 1.28 µM (inactive) |
| O=C1C=CC2(C=C1)O[C@H](Cc1ccccc1)[C@@H](Cc1ccccc1)O2 | 0.303 µM (active) | 1.66 µM (inactive) | 2.64 µM (inactive) | 0.223 µM (active) | 5.74 µM (inactive) | 0.484 µM (active) | 0.568 µM (active) | 0.347 µM (active) | 1.69 µM (inactive) | 1.28 µM (inactive) | 1.48 µM (inactive) | 0.887 µM (active) | 2.17 µM (inactive) |  | 4.62 µM (inactive) | 2.11 µM (inactive) | 0.193 µM (active) | 5.85 µM (inactive) | 0.174 µM (active) |
| COc1ccc2c(c1)OCc1c-2oc2ccccc2c1=O | > 100 µM (inactive) | > 100 µM (inactive) | > 100 µM (inactive) | > 100 µM (inactive) | > 100 µM (inactive) | > 100 µM (inactive) | 41.1 µM (inactive) |  | > 100 µM (inactive) | > 100 µM (inactive) | > 100 µM (inactive) |  | 52.7 µM (inactive) | > 100 µM (inactive) | > 100 µM (inactive) |  | > 100 µM (inactive) | 47.5 µM (inactive) | > 100 µM (inactive) |
| COc1ccc(-c2cc(-c3ccc(Nc4ccnc5cc(Cl)ccc45)cc3)[nH]c(=O)c2C#N)cc1 | > 100 µM (inactive) | > 100 µM (inactive) | > 100 µM (inactive) | > 100 µM (inactive) | > 100 µM (inactive) | > 100 µM (inactive) |  | > 100 µM (inactive) | 2.86 µM (inactive) |  | > 100 µM (inactive) | > 100 µM (inactive) | > 100 µM (inactive) | > 100 µM (inactive) | > 100 µM (inactive) | 77.4 µM (inactive) | > 100 µM (inactive) | > 100 µM (inactive) | > 100 µM (inactive) |
| Nc1ccc(Nc2cc(=O)[nH]c(=O)[nH]2)cc1Cl | > 100 µM (inactive) | > 100 µM (inactive) | > 100 µM (inactive) | > 100 µM (inactive) | > 100 µM (inactive) | > 100 µM (inactive) | > 100 µM (inactive) | > 100 µM (inactive) |  | > 100 µM (inactive) | > 100 µM (inactive) | > 100 µM (inactive) | > 100 µM (inactive) | > 100 µM (inactive) | > 100 µM (inactive) | > 100 µM (inactive) | > 100 µM (inactive) | > 100 µM (inactive) | > 100 µM (inactive) |
| CCOC(=O)[C@@]1(C(C)=O)CC(C)=C(C)C[S@@+]1[O-] | > 100 µM (inactive) | > 100 µM (inactive) | > 100 µM (inactive) | > 100 µM (inactive) | > 100 µM (inactive) | > 100 µM (inactive) |  | > 100 µM (inactive) | > 100 µM (inactive) | > 100 µM (inactive) | > 100 µM (inactive) | > 100 µM (inactive) | > 100 µM (inactive) | > 100 µM (inactive) | > 100 µM (inactive) | > 100 µM (inactive) | > 100 µM (inactive) | > 100 µM (inactive) | > 100 µM (inactive) |
| CCOC(=O)C1=CC(C)(C(=O)OCC)Nc2c(nc(SC)n(C)c2=O)N1 (stereo not drawn) | > 10 µM (inactive) |  | > 10 µM (inactive) | > 10 µM (inactive) | > 10 µM (inactive) | > 10 µM (inactive) | > 10 µM (inactive) | > 10 µM (inactive) | > 10 µM (inactive) | > 10 µM (inactive) | > 10 µM (inactive) | > 10 µM (inactive) | > 10 µM (inactive) | > 10 µM (inactive) | > 10 µM (inactive) | > 10 µM (inactive) | > 10 µM (inactive) | > 10 µM (inactive) | > 10 µM (inactive) |
| CCCCCCCCCCCCCCCCNc1ccn(C2CC(OP(=O)(O)OCC3OC(n4cc(CC)c(=O)[nH]c4=O)CC3O)C(CO)O2)c(=O)n1 (stereo not drawn) | 27.9 µM (inactive) | 18 µM (inactive) | 24.5 µM (inactive) | 44.7 µM (inactive) | > 100 µM (inactive) | 42.9 µM (inactive) | 2.29 µM (inactive) | > 100 µM (inactive) | 15.7 µM (inactive) | 30.3 µM (inactive) |  | 21.4 µM (inactive) | 18.7 µM (inactive) | 20.3 µM (inactive) | 22 µM (inactive) | 16 µM (inactive) | 20 µM (inactive) | 27.3 µM (inactive) | 36.4 µM (inactive) |
| CC(=O)c1ccccc1NS(=O)(=O)c1ccc2nc(C)n(NS(=O)(=O)c3ccccc3C(C)=O)c(=O)c2c1 | > 100 µM (inactive) | > 100 µM (inactive) | > 100 µM (inactive) | > 100 µM (inactive) | > 100 µM (inactive) | > 100 µM (inactive) | > 100 µM (inactive) | > 100 µM (inactive) | > 100 µM (inactive) | > 100 µM (inactive) | > 100 µM (inactive) | > 100 µM (inactive) | > 100 µM (inactive) | > 100 µM (inactive) |  | > 100 µM (inactive) | > 100 µM (inactive) | > 100 µM (inactive) | > 100 µM (inactive) |
| CCCCC(=O)Nc1ccc2cc(C(=O)OC)c(=O)[nH]c2n1 | > 100 µM (inactive) |  | > 100 µM (inactive) | > 100 µM (inactive) | > 100 µM (inactive) | > 100 µM (inactive) | > 100 µM (inactive) | > 100 µM (inactive) | > 100 µM (inactive) | > 100 µM (inactive) | > 100 µM (inactive) | > 100 µM (inactive) | > 100 µM (inactive) | > 100 µM (inactive) | > 100 µM (inactive) | > 100 µM (inactive) | > 100 µM (inactive) | > 100 µM (inactive) | > 100 µM (inactive) |
| FC(F)(F)C1(C(F)(F)F)OC(Cl)(Cl)C(Cl)(Cl)O1 | > 10 µM (inactive) | > 10 µM (inactive) | > 10 µM (inactive) | > 10 µM (inactive) | > 10 µM (inactive) | > 10 µM (inactive) | > 10 µM (inactive) | > 10 µM (inactive) | > 10 µM (inactive) | > 10 µM (inactive) | > 10 µM (inactive) | > 10 µM (inactive) | > 10 µM (inactive) |  | > 10 µM (inactive) | > 10 µM (inactive) | > 10 µM (inactive) | > 10 µM (inactive) | > 10 µM (inactive) |
| O=C(O)C(F)(F)C(F)(F)C(F)(F)C(F)(F)C(=O)O | > 100 µM (inactive) | > 100 µM (inactive) | > 100 µM (inactive) | > 100 µM (inactive) | > 100 µM (inactive) | > 100 µM (inactive) | > 100 µM (inactive) | > 100 µM (inactive) | > 100 µM (inactive) | > 100 µM (inactive) | > 100 µM (inactive) | > 100 µM (inactive) | > 100 µM (inactive) |  | > 100 µM (inactive) | > 100 µM (inactive) | > 100 µM (inactive) | > 100 µM (inactive) | > 100 µM (inactive) |
| N#CC(/N=N/c1ccc(Cl)cc1)c1nc2ccccc2o1 (stereo not drawn) | > 100 µM (inactive) | 20.6 µM (inactive) | 33 µM (inactive) |  | 49 µM (inactive) | > 100 µM (inactive) | > 100 µM (inactive) | 30.2 µM (inactive) | 89.7 µM (inactive) | > 100 µM (inactive) | 34.6 µM (inactive) | > 100 µM (inactive) | 27.9 µM (inactive) | 20.5 µM (inactive) | > 100 µM (inactive) | 42.7 µM (inactive) | 88.1 µM (inactive) | 32.7 µM (inactive) | 10.6 µM (inactive) |
| O=C(O)c1[nH]c(=O)[nH]c(=O)c1CN1CCCCC1 | > 100 µM (inactive) | > 100 µM (inactive) | > 100 µM (inactive) | > 100 µM (inactive) | > 100 µM (inactive) | > 100 µM (inactive) | > 100 µM (inactive) | > 100 µM (inactive) | > 100 µM (inactive) | > 100 µM (inactive) | > 100 µM (inactive) | > 100 µM (inactive) | > 100 µM (inactive) |  | > 100 µM (inactive) | > 100 µM (inactive) | > 100 µM (inactive) | > 100 µM (inactive) | > 100 µM (inactive) |
| CC1(C)OC2C(CO)OC(n3ccc(N)nc3=O)C2O1 (stereo not drawn) | > 100 µM (inactive) | > 100 µM (inactive) | > 100 µM (inactive) | > 100 µM (inactive) | 21.5 µM (inactive) | > 100 µM (inactive) | > 100 µM (inactive) |  | > 100 µM (inactive) | > 100 µM (inactive) | > 100 µM (inactive) | > 100 µM (inactive) | > 100 µM (inactive) | > 100 µM (inactive) | > 100 µM (inactive) | > 100 µM (inactive) | > 100 µM (inactive) | > 100 µM (inactive) | > 100 µM (inactive) |

— ChEMBL document CHEMBL1201862, “PubChem BioAssay data set” (2004)
